Assay results taken from patent publication US4496578A, “Antihypertensive sulfur-containing compounds” (Santen Pharmaceutical Co., Ltd., priority 1978, dated 1985).

What was measured:
[1] = tested on: angiotensin I-converting enzyme; test: Percent inhibition of pressor response to angiotensin I in unanesthetized rats after oral administration (ACE inhibition in vivo); set-up: species or system Male Wistar strain rats
Description: As recently it has been clear that the compounds inhibiting angiotensin I-converting enzyme may be the curative potency against both renal hypertension and essential hypertension, the compounds of this invention are evaluated as antihypertensive agents by the following method.
Male Wistar strain rats weighing 200-300 g were used. Under ether anesthesia, polyethylene cannulae are inserted into carotid artery and jugular vein. The cannula to carotid artery is connected to an electric transducer, while the cannula to jugular vein is connected to an apparatus for continuous infusion. After the complete recovery from anesthesia, angiotensin I is infused intravenously in a dose of 300 ng/kg by the apparatus for continuous infusion, and the pressor response is recorded by polygraph (Nihon Koden, RM-150). The compounds of this invention suspended in 0.5% tragacanth solution are addministered orally in a dose of 0.3 ml per 100 g of body weight, and the pressor response to angiotensin I infused intravenously is measured with time.

[2] = tested on: male ddy-std. strain mice; test: Acute toxicity test in mice; format: in vivo; details: intraperitoneal, suspended in 0.5% tragacanth
Description: The male ddy-std. strain mice (4 weeks of age, weighing 19-21 g) were placed in a breeding room of constant temperature and humidity (23±1° C., 55±5%) and fed freely pellet diet (CE-2, Clea Japan, Inc.) and water ad. libitum for a week. The mice showing the normal growth were selected for the experiment.
Test compound is suspended in 0.5% tragacanth solution, and administered intraperitoneally in a dose of 0.5 ml per 20 g B.W.

[3] = 5 min after oral dose, mg/kg: 2 1.8, 2A 1.3, 2B 1.8, 22 1.5, 22A 1.0, 22B 1.4, 32 1.7, 32C 1.3, 64 1.9
[4] = 15 min after oral dose, mg/kg: 2 1.8, 2A 1.3, 2B 1.8, 22 1.5, 22A 1.0, 22B 1.4, 32 1.7, 32C 1.3, 64 1.9
[5] = 25 min after oral dose, mg/kg: 2 1.8, 2A 1.3, 2B 1.8, 22 1.5, 22A 1.0, 22B 1.4, 32 1.7, 32C 1.3, 64 1.9
[6] = 35 min after oral dose, mg/kg: 2 1.8, 2A 1.3, 2B 1.8, 22 1.5, 22A 1.0, 22B 1.4, 32 1.7, 32C 1.3, 64 1.9
[7] = 45 min after oral dose, mg/kg: 2 1.8, 2A 1.3, 2B 1.8, 22 1.5, 22A 1.0, 22B 1.4, 32 1.7, 32C 1.3, 64 1.9
[8] = 55 min after oral dose, mg/kg: 2 1.8, 2A 1.3, 2B 1.8, 22 1.5, 22A 1.0, 22B 1.4, 32 1.7, 32C 1.3, 64 1.9
[9] = 65 min after oral dose, mg/kg: 2 1.8, 2A 1.3, 2B 1.8, 22 1.5, 22A 1.0, 22B 1.4, 32 1.7, 32C 1.3, 64 1.9
[10] = 75 min after oral dose, mg/kg: 2 1.8, 2A 1.3, 2B 1.8, 22 1.5, 22A 1.0, 22B 1.4, 32 1.7, 32C 1.3, 64 1.9
[11] = 85 min after oral dose, mg/kg: 2 1.8, 2A 1.3, 2B 1.8, 22 1.5, 22A 1.0, 22B 1.4, 32 1.7, 32C 1.3, 64 1.9
[12] = 95 min after oral dose, mg/kg: 2 1.8, 2A 1.3, 2B 1.8, 22 1.5, 22A 1.0, 22B 1.4, 32 1.7, 32C 1.3, 64 1.9
[13] = 105 min after oral dose, mg/kg: 2 1.8, 2A 1.3, 2B 1.8, 22 1.5, 22A 1.0, 22B 1.4, 32 1.7, 32C 1.3, 64 1.9
[14] = 115 min after oral dose, mg/kg: 2 1.8, 2A 1.3, 2B 1.8, 22 1.5, 22A 1.0, 22B 1.4, 32 no value, 32C 1.3, 64 1.9

Row | SMILES | Inhibition (%) of pressor response to angiotensin I [1, 3] | Inhibition (%) of pressor response to angiotensin I [1, 4] | Inhibition (%) of pressor response to angiotensin I [1, 5] | Inhibition (%) of pressor response to angiotensin I [1, 6] | Inhibition (%) of pressor response to angiotensin I [1, 7] | Inhibition (%) of pressor response to angiotensin I [1, 8] | Inhibition (%) of pressor response to angiotensin I [1, 9] | Inhibition (%) of pressor response to angiotensin I [1, 10] | Inhibition (%) of pressor response to angiotensin I [1, 11] | Inhibition (%) of pressor response to angiotensin I [1, 12] | Inhibition (%) of pressor response to angiotensin I [1, 13] | Inhibition (%) of pressor response to angiotensin I [1, 14] | acute toxicity, LD [2]
1 | Cc1ccc(C(=O)SC[C@@H](C)C(=O)N2CSC[C@H]2C(=O)O)cc1 [Compound 22] | 45.2% | 60.4% | 51.4% | 59.0% | 55.0% | 50.8% | 55.0% | 53.5% | 49.4% | 46.5% | 39.8% | 31.6% | 
2 | C[C@H](CSC(=O)c1ccccc1)C(=O)N1C(C(=O)O)CCC1c1ccccc1O (stereo partly drawn) [Compound 2B] | 7.9% | 36.8% | 36.8% | 36.8% | 45.7% | 31.6% | 31.6% | 31.6% | 21.1% | 21.1% | 15.8% | 15.8% | 
3 | C[C@H](CSC(=O)c1ccccc1)C(=O)N1CSC[C@H]1C(=O)OCOC(=O)C(C)(C)C [Compound 64, (2,2-Dimethyl-1-oxopropoxy)methyl (4R)-3-[(2S)-S-benzoyl-3-mercapto-2-methylpropanoyl]-4-thiazolidinecarboxylate] | 30.0% | 59.5% | 69.5% | 59.9% | 55.7% | 53.5% | 47.1% | 37.2% | 36.5% | 30.8% | 27.8% | 24.5% | 
4 | O=C(O)[C@@H]1CSC(c2ccccc2O)N1C(=O)CCS (stereo partly drawn) [Compound 32C] | 53.3% | 62.9% | 64.7% | 63.7% | 54.0% | 49.3% | 47.7% | 38.8% | 34.0% | 30.0% | 30.0% | 31.0% | 
5 | Cc1ccc(C(=O)SC[C@@H](C)C(=O)N2C(C(=O)O)CCC2c2ccccc2O)cc1 (stereo partly drawn) [Compound 2] | 39.3% | 58.1% | 64.0% | 60.0% | 73.0% | 57.2% | 55.0% | 54.5% | 42.0% | 39.5% | 42.0% | 37.0% | 
6 | C[C@H](CS)C(=O)N1CSC[C@H]1C(=O)O [Compound 22A, (4R)-3-[(2S)-3-mercapto-2-methylpropanoyl]-4-thiazolidinecarboxylic acid] | 34.0% | 51.5% | 49.7% | 45.0% | 37.5% | 30.2% | 30.2% | 30.2% | 28.0% | 19.8% | 10.2% | 8.0% | 
7 | C[C@H](CSC(=O)c1ccccc1)C(=O)N1CSC[C@H]1C(=O)O [Compound 22B, (4R)-3-[(2S)-S-benzoyl-3-mercapto-2-methylpropanoyl]-4-thiazoldinecarboxylic acid] | 45.4% | 60.7% | 60.6% | 45.4% | 45.4% | 45.4% | 42.4% | 36.4% | 30.3% | 21.2% | 21.2% | 21.2% | 
8 | CC(=O)Oc1ccccc1C1SC[C@@H](C(=O)O)N1C(=O)CCSC(C)=O (stereo partly drawn) [Compound 32, (4R)-2-(2-Acetoxyphenyl)-3-(S-acetyl-3-mercaptopropanoyl)-4-thiazolidinecarboxylic acid] | 40.2% | 55.3% | 70.2% | 70.2% | 61.1% | 54.2% | 55.3% | 57.2% | 48.2% | 43.4% | 27.3% |  | > 500 mg/kg
9 | C[C@H](CS)C(=O)N1C(C(=O)O)CCC1c1ccccc1O (stereo partly drawn) [Compound 2A] | 20.0% | 40.0% | 37.5% | 36.5% | 33.7% | 30.0% | 28.2% | 20.0% | 30.0% | 24.8% | 21.0% | 20.0% | 
